Source: doi:10.1101/209783v1 (biorxiv, 2017)

Molecular target: Kir6.2/SUR2A KATP channel (mKir6.2 + rSUR2A) (Rattus norvegicus, UniProt Q61743+Q63563)
Assay: inside-out excised patch clamp, Hill fit
Format: biochemical

Chain of Kir6.2/SUR2A KATP channel (mKir6.2 + rSUR2A) (Q63563 whole entry): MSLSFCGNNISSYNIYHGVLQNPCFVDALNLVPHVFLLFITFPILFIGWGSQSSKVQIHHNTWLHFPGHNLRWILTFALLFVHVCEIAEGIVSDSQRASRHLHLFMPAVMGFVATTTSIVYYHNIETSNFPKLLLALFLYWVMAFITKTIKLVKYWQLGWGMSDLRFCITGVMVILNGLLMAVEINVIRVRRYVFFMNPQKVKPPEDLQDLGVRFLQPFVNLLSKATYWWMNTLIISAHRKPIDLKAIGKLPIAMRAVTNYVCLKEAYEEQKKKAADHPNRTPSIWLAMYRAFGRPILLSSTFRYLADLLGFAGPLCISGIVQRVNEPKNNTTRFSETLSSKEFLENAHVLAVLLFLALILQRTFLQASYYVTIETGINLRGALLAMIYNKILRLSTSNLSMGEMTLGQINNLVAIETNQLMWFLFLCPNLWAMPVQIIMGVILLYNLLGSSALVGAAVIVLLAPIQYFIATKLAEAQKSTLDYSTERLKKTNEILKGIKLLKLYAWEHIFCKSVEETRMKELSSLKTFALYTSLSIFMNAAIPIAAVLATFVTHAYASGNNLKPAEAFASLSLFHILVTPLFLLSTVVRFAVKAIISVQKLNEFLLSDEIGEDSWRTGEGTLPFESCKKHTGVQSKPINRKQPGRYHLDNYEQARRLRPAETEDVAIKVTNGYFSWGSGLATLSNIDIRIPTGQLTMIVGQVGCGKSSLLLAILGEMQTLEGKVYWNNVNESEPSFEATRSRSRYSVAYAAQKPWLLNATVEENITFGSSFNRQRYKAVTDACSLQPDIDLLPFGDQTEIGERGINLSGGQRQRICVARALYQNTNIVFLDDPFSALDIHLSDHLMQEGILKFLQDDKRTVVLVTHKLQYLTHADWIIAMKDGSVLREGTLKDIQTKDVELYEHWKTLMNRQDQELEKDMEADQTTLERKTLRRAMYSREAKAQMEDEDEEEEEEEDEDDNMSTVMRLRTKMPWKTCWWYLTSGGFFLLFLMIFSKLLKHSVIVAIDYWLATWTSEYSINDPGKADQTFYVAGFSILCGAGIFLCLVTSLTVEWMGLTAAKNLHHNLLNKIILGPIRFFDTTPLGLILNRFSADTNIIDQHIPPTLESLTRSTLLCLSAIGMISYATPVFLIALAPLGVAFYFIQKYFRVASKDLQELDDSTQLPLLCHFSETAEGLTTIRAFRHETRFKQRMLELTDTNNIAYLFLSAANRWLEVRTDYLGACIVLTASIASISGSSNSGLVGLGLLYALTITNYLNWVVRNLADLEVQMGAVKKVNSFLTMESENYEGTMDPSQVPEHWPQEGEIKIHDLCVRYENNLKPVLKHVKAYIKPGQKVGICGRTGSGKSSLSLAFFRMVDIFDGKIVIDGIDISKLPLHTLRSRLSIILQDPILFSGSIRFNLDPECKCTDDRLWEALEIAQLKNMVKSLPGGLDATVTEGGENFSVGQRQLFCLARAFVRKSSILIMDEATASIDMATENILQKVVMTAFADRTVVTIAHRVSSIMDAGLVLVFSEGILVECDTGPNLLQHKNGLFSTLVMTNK
Chain of Kir6.2/SUR2A KATP channel (mKir6.2 + rSUR2A) (Q61743 whole entry): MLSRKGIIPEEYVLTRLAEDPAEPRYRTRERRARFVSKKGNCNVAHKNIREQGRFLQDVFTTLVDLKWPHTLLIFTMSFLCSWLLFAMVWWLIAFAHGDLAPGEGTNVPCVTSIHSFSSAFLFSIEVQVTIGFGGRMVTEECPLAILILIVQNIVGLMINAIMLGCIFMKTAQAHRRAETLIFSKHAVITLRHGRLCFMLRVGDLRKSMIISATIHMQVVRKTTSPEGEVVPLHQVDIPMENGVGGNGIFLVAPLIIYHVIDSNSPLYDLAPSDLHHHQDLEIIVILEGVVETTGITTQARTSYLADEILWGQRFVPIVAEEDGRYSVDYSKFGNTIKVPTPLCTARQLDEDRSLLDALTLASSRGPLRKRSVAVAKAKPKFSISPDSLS

IC50 [µM]	SMILES
0.0195 ± 0.0061	COc1ccc(Cl)cc1C(=O)NCCc1ccc(S(=O)(=O)NC(=O)NC2CCCCC2)cc1 [glibenclamide]
14.4 ± 2.3	Nc1ncnc2c1ncn2[C@@H]1O[C@H](COP(=O)(O)OP(=O)(O)OP(=O)(O)O)[C@@H](O)[C@H]1O [ATP]
